These are literature values, as cited in patent US11737458B2, “Fibrous substrate for capture of gram negative bacteria” (Kimberly-Clark Worldwide, Inc., priority 2015, dated 2023).

Turning to `C=CC(=O)O` [acrylic acid], the pKa value result was “about 4.3”.
